Experimental findings from PubChem BioAssay (NCI) are described below.

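Where inhibition never reached the appropriate level, the endpoint shown equals the highest concentration tested. Otherwise, values were interpolated linearly from a five-concentration, 48-hour dose response in 96-well plates. GI50 = concentration required for 50% inhibition of growth. TGI is the concentration that stops growth completely.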

Some test systems named below: HCT-116 colon; HOP-62 NSCLC; HT29 colon; MCF7 breast; OVCAR-8 ovarian; RXF 393 renal; SK-MEL-5 melanoma; TK-10 renal; SR leukemia.
What all share (assay): DTP human tumour cell line panel, 48 h

On to `CC(=O)CC(O)(C(F)(F)Cl)C(F)(Cl)Cl` (centres undefined), for which the total growth inhibition concentration (TGI) with HCT-116 colon, with HOP-62 NSCLC, with HT29 colon, in the assay on MCF7 breast, in the assay on OVCAR-8 ovarian and in the assay on RXF 393 renal was greater than 10 µM in each case. For the same compound, the TGI in the assay on SK-MEL-5 melanoma and in the assay on TK-10 renal was greater than 10 µM throughout.
In the case of `CCCNC(=O)c1cc(OC)c(OC)cc1NC(=O)C12CC3CC(CC(C3)C1)C2`, the TGI was found to be 30.4 µM in the assay on HCT-116 colon; 34.7 µM in the assay on HOP-62 NSCLC; 32.2 µM in the assay with HT29 colon; 64.2 µM with MCF7 breast; 66.6 µM in the assay on OVCAR-8 ovarian; 19.3 µM with RXF 393 renal. Also, the TGI in the assay on SK-MEL-5 melanoma was greater than 100 µM; in the assay with TK-10 renal, 31.3 µM.
Turning to `O=C1OCOC2(CCCC2)C1c1ccccc1` (centres undefined), the TGI with HCT-116 colon, in the assay with HOP-62 NSCLC, in the assay with HT29 colon, in the assay with OVCAR-8 ovarian, in the assay on RXF 393 renal and in the assay on SK-MEL-5 melanoma was greater than 100 µM throughout. Further, the TGI in the assay with SR leukemia and in the assay with TK-10 renal was greater than 100 µM each time.
Take `Cc1nc2nnc(CCCCCCCCc3nnc4nc(C)[nH]n34)n2[nH]1`: the TGI in the assay with HCT-116 colon, in the assay on HOP-62 NSCLC, in the assay on HT29 colon, in the assay on MCF7 breast, in the assay with OVCAR-8 ovarian and in the assay with RXF 393 renal was greater than 100 µM each time. Further, the TGI with SK-MEL-5 melanoma and with TK-10 renal was greater than 100 µM in each case.
Regarding `O=[N+]([O-])c1ccc(CSC2=C(c3ccc(Cl)cc3)S/C(=C3\SC(SCc4ccc([N+](=O)[O-])cc4)=C(c4ccc(Cl)cc4)S3)S2)cc1`, the TGI in the assay on HCT-116 colon, in the assay with HOP-62 NSCLC, in the assay on HT29 colon, in the assay on MCF7 breast, with OVCAR-8 ovarian and in the assay on RXF 393 renal was greater than 100 µM each time. Also, the total growth inhibition concentration (TGI) in the assay with SK-MEL-5 melanoma and in the assay on TK-10 renal was greater than 100 µM each time.
Regarding `N#CC1=C(N)OC2=C(CCCc3ccc([N+](=O)[O-])cc32)C1c1ccc(Cl)cc1` (centres undefined), the TGI is 12.5 µM in the assay with HCT-116 colon; greater than 100 µM in the assay on HOP-62 NSCLC; greater than 100 µM in the assay with HT29 colon; 22.6 µM with MCF7 breast; 62.6 µM in the assay on OVCAR-8 ovarian; 19.5 µM in the assay with RXF 393 renal. Moreover, the TGI in the assay on SK-MEL-5 melanoma is 15.7 µM; with TK-10 renal, greater than 100 µM.
As for `Cc1cc2nc3c(N)nn(CCCN(C)C)c3nc2cc1C`, the TGI in the assay on HCT-116 colon, in the assay on HOP-62 NSCLC, in the assay with HT29 colon, with MCF7 breast, in the assay on OVCAR-8 ovarian and with RXF 393 renal was greater than 100 µM in each case. Besides, the TGI with SK-MEL-5 melanoma and with TK-10 renal was greater than 100 µM each time.
With `COc1cc2c(c(O)c1OC)C(O)C1CCC(=O)N1C2c1ccc2c(c1)OCO2` (centres undefined), the TGI in the assay on HCT-116 colon, in the assay with HOP-62 NSCLC, with HT29 colon, in the assay on MCF7 breast, in the assay with OVCAR-8 ovarian and in the assay on RXF 393 renal was greater than 100 µM each time. In addition, the TGI in the assay with SR leukemia and in the assay with TK-10 renal was greater than 100 µM in each case.
`CC(=O)N(C(=O)CC(=O)N1N=C(C)C(N=Nc2cccc([N+](=O)[O-])c2)C1=O)c1ccc(Cl)cc1` (centres undefined): the TGI with HCT-116 colon, in the assay with HOP-62 NSCLC, in the assay with HT29 colon, in the assay with MCF7 breast, in the assay on OVCAR-8 ovarian and with SK-MEL-5 melanoma was greater than 10 µM throughout. For the same compound, the TGI with SR leukemia and in the assay with TK-10 renal was greater than 10 µM each time.
With `Cc1ccc(-c2ccc3c(c2)Sc2ccccc2O3)n1C`, the TGI was greater than 100 µM in the assay on HCT-116 colon; greater than 100 µM in the assay on HOP-62 NSCLC; greater than 100 µM in the assay on OVCAR-8 ovarian; 11.4 µM in the assay with RXF 393 renal; 39.1 µM with SK-MEL-5 melanoma; greater than 100 µM with SR leukemia. This compound registered a TGI with TK-10 renal greater than 100 µM.
In the case of `CCCC(O)c1ccc2[nH]c3c(C)cc([N+](=O)[O-])c(C)c3c2c1` (centres undefined), the TGI in the assay with HCT-116 colon, with HOP-62 NSCLC, in the assay with HT29 colon, in the assay with OVCAR-8 ovarian, in the assay with SK-MEL-5 melanoma and with SR leukemia was greater than 100 µM each time. Besides, in the assay with TK-10 renal, the TGI was greater than 100 µM.
On to `O=C1CC2(CCN(Cc3ccccc3)CC2)C(=O)N1N1CCCCC1`, for which the TGI in the assay on HCT-116 colon, with HOP-62 NSCLC, with HT29 colon, with MCF7 breast, with OVCAR-8 ovarian and in the assay on RXF 393 renal was greater than 100 µM each time. For the same compound, the TGI in the assay on SK-MEL-5 melanoma and in the assay on TK-10 renal was greater than 100 µM each time.
As for `C=CC[PH+](c1ccccc1)c1ccccc1.C=CC[PH+](c1ccccc1)c1ccccc1.[Pt+2].[S-]c1nc2ccccc2[nH]1.[S-]c1nc2ccccc2[nH]1`, the GI50 is 2.62 µM in the assay with HT29 colon; 2.57 µM in the assay on MCF7 breast; 2.61 µM in the assay with RXF 393 renal; 2.71 µM in the assay with SR leukemia; 3.29 µM in the assay with TK-10 renal. Further, the TGI in the assay on HT29 colon was greater than 100 µM; with MCF7 breast, 9.91 µM; in the assay on RXF 393 renal, 7.06 µM; with SR leukemia it was greater than 100 µM; with TK-10 renal it was 67.4 µM.
As to `O=C(O)COc1c(Cl)cc(Cl)c(C(c2c(Cl)cc(Cl)c(OCC(=O)O)c2Cl)C(Cl)(Cl)Cl)c1Cl`, the TGI is greater than 100 µM in the assay on HCT-116 colon; 15.7 µM with HOP-62 NSCLC; 92.6 µM in the assay with HT29 colon; greater than 100 µM in the assay on MCF7 breast; greater than 100 µM in the assay with OVCAR-8 ovarian; 92.7 µM in the assay with RXF 393 renal. Also, the figures for the TGI in the assay with SK-MEL-5 melanoma and with TK-10 renal were 40.6 µM and 95.8 µM, respectively.
`COC(=O)[C@@H]1CN(C(=O)Cc2ccccc2)C(=O)N1`: the TGI in the assay on HCT-116 colon, in the assay on HOP-62 NSCLC, with HT29 colon, in the assay with OVCAR-8 ovarian, in the assay with RXF 393 renal and with SK-MEL-5 melanoma was greater than 100 µM each time. Moreover, the TGI in the assay with SR leukemia and in the assay on TK-10 renal was greater than 100 µM in each case.
Take `O=C(OC[C@H]1C[C@H]2C(=O)OCCC[C@H]2O1)c1ccccc1`: the TGI in the assay on HCT-116 colon, in the assay with HOP-62 NSCLC, in the assay with HT29 colon, in the assay with MCF7 breast, in the assay with OVCAR-8 ovarian and with SK-MEL-5 melanoma was greater than 100 µM throughout. Besides, the TGI with SR leukemia and with TK-10 renal was greater than 100 µM each time.
As for `Cc1[nH]c2c(C)c3c([nH]c4ccc(Cl)cc43)c(C)c2c(=O)c1C`, the total growth inhibition concentration (TGI) in the assay with HCT-116 colon is 11.3 µM; in the assay on HOP-62 NSCLC, 19.8 µM; with HT29 colon, 12.8 µM; in the assay with MCF7 breast it was 6.9 µM; in the assay on OVCAR-8 ovarian, 17.7 µM; in the assay on SK-MEL-5 melanoma, 42.2 µM. The TGI in the assay on SR leukemia came out at 8.19 µM; in the assay with TK-10 renal, 24.1 µM.
Turning to `c1cc(CSP234N5CCN2CCN3CCN4CC5)cc(CSP234N5CCN2CCN3CCN4CC5)c1`, the TGI was greater than 100 µM in the assay on HCT-116 colon; greater than 100 µM in the assay on HOP-62 NSCLC; 61 µM in the assay with HT29 colon; 68.6 µM in the assay on MCF7 breast; 41.9 µM in the assay with OVCAR-8 ovarian; 45.5 µM with SK-MEL-5 melanoma. Besides, the values for the TGI in the assay with SR leukemia and in the assay on TK-10 renal were 28.2 µM and greater than 100 µM, respectively.
In the case of `CN1N=C(c2ccncc2)OC1c1ccc(C(F)(F)F)cc1` (centres undefined), the TGI in the assay on HCT-116 colon, with HOP-62 NSCLC, in the assay on HT29 colon, with MCF7 breast, in the assay on OVCAR-8 ovarian and in the assay on RXF 393 renal was greater than 100 µM in each case. Besides, the TGI in the assay with SK-MEL-5 melanoma and in the assay on TK-10 renal was greater than 100 µM each time.
With `CC1(C)OCC(/C=C\C(O)CC2(C)OCCO2)CO1` (centres undefined), the TGI in the assay on HCT-116 colon, in the assay on HOP-62 NSCLC, with HT29 colon, in the assay on MCF7 breast, in the assay with OVCAR-8 ovarian and with SK-MEL-5 melanoma was greater than 100 µM each time. The TGI in the assay with SR leukemia and in the assay with TK-10 renal was greater than 100 µM throughout.
Regarding `COc1ccc(Cl)cc1NC(=O)O/N=C(\Cl)C(C)C`, the TGI was found to be 45.5 µM with HCT-116 colon; 35.2 µM with HOP-62 NSCLC; 43.8 µM in the assay with HT29 colon; 38.6 µM in the assay with MCF7 breast; 32.7 µM in the assay on OVCAR-8 ovarian; 17.4 µM in the assay on RXF 393 renal. For the same compound, the results for the TGI in the assay with SK-MEL-5 melanoma and in the assay with TK-10 renal were greater than 44.5 µM and 6.93 µM, respectively.
Consider `CCCCCCCC(=O)NC(C)(C)C(=O)NCC(=O)NC(CC(C)C)C(=O)NC(C)(C)C(=O)NCC(=O)NCC(=O)NC(CC(C)C)C(=O)NC(C)(C)C(=O)NCC(=O)NC(C(=O)NC(CO)CC(C)C)C(C)CC` (centres undefined), for which the TGI with HCT-116 colon worked out at 7.09 µM; with HOP-62 NSCLC, 8.12 µM; in the assay on HT29 colon it was 7.42 µM; with OVCAR-8 ovarian, 7.62 µM; in the assay with RXF 393 renal, 7.97 µM; in the assay with SK-MEL-5 melanoma it was 7.19 µM. Moreover, the concentration for total growth inhibition (TGI) in the assay with SR leukemia was 8.63 µM; with TK-10 renal, 8.17 µM.
Turning to `C=CCCCCCCCCCOC1C=CC(O)C(CO)O1` (centres undefined), the TGI with HCT-116 colon was greater than 100 µM; in the assay on HOP-62 NSCLC it was greater than 100 µM; in the assay on HT29 colon it was 46.4 µM; with MCF7 breast, greater than 100 µM; in the assay with OVCAR-8 ovarian, 37.4 µM; with RXF 393 renal, greater than 100 µM. The TGI is 48.1 µM with SK-MEL-5 melanoma and greater than 100 µM with TK-10 renal.
